Laboratory results as given in patent publication US8536183B2, “3-pyridylcarbonyl-piperazinylsulfonyl derivatives” (Convergence Pharmaceuticals Limited, priority 2008, dated 2013).

molecular target: T1, hCaV2.2 (Homo sapiens, UniProt Q00975); experiment: hCaV2.2 assay, IonWorks planar array electrophysiology in stably transfected HEK293 cells; type: cell-based; conditions: current elicited by the 1st depolarising pulse inhibited by 50%; HEK293 cells expressing human CaV2.2 alpha/beta3/alpha2delta1; read-out: mean pIC50 (tonic pIC50) (converted)
T1 construct: expressed in transfected cells; plasmids pCIN5-hCaV2.2, pCIH-hCaV β3, pCIP-α2δ1
Experimental: Compounds of the invention may be tested for in vitro biological activity in the hCaV2.2 assay in accordance with the following studies:
Stable cell lines expressing the human CaV2.2 α (als) subunit, along with the human […] and α2δ1 auxiliary subunits were created following sequential transfection and selection of human embryonic kidney (HEK293) cells. HEK293 cells were cultured in Dulbecco's modified Eagles media/F12 media (Invitrogen, Cat #041-95750V) containing 10% foetal bovine serum, with added L-glutamine (2 mM; Invitrogen, Cat #25030-024) and non-essential amino acids (5%; Invitrogen, Cat #11140-035). Initially HEK293 cells were transfected with two plasmid vectors for expression of the hCaV2.2 α subunit (pCIN5-hCaV2.2 which carries a neomycin resistance marker) and the hCaV β3 subunit (pCIH-hCaV β3 which carries a hygromycin resistance marker). Clonal cell lines were isolated following selection in media supplemented with 0.4 mg ml^−1 Geneticin G418 (Invitrogen, Cat #10131-027) and 0.1 mg ml^1 hygromycin (Invitrogen, Cat #10687-010). These clonal cell lines were assessed for Cav2.2α/β3-mediated current expression using the IonWorks planar array electrophysiology technology (described below). A clonal line was identified that gave a reasonable level of functional Cav2.2α/β3 current expression. This cell line was transfected with a plasmid vector for expression of the human […] subunit (pCIP-α2δ1 which carries a puromycin resistance marker) and clonal cell lines isolated following selection in media containing 0.62 μg ml^−1 puromycin (Sigma, Cat #P-7255), in addition to 0.4 mg ml^−1 Geneticin G418 and 0.1 mg ml^−1 hygromycin. Several cell lines were identified that gave robust levels of Cav2.2α/β3/α2δ1-mediated current expression and one of these was selected for compound profiling. Expression of all three subunits within this cell line was continuously maintained by the inclusion of G418 (0.4 mg ml^−1), hygromycin (0.1 mg ml^−1) and puromycin (0.62 μg ml^−1). Cells were maintained at 37° C. in a humidified environment containing 5% CO2 in air. Cells were liberated from the T175 culture flasks for passage and harvesting using TrpLE (Invitrogen, Cat #12604-013).
Cells were grown to 30-60% confluence in T175 flasks and maintained at 30° C. for 24 hrs prior to recording. Cells were lifted by removing the growth media, washing with Ca^2+ free PBS (Invitrogen, Cat #14190-094) and incubating with 3 ml of warmed (37° C.) TrpLE (Invitrogen, Cat #12604-013) for 6 minutes. Lifted cells were suspended in 10 ml of extracellular buffer. Cell suspension was then placed into a 15 ml tube and centrifuged for 2 minutes at 700 rpm. After centrifugation, the supernatant was removed and the cell pellet was resuspended in 4.5 ml of extracellular solution.
Currents were recorded at room temperature (21-23° C.) using the IonWorks planar array electrophysiology technology (Molecular Devices Corp.). Stimulation protocols and data acquisition were carried out using a microcomputer (Dell Pentium 4). In order to determine planar electrode hole resistances (Rp), a 10 mV, 160 ms potential difference was applied across each hole. These measurements were performed before cell addition. After cell addition a seal test was performed prior to antibiotic (amphotericin) circulation to achieve intracellular access. Leak subtraction was conducted in all experiments by applying a 160 ms hyperpolarizing (10 mV) prepulse 200 ms before the test pulses to measure leak conductance. Test pulses stepping from the holding potential (VH) of −90 mV to +10 mV were applied for 20 ms and repeated 10 times at a frequency of 10 Hz. In all experiments, the test pulse protocol was performed in the absence (pre-read) and presence (post-read) of a compound. Pre- and post-reads were separated by a compound addition followed by a 3-3.5 min incubation.
The intracellular solution contained the following (in mM): K-gluconate 120, KCl 20 mM, MgCl2 5, EGTA 5, HEPES 10, adjusted to pH 7.3. […]

T1 sequence (Q00975 whole entry): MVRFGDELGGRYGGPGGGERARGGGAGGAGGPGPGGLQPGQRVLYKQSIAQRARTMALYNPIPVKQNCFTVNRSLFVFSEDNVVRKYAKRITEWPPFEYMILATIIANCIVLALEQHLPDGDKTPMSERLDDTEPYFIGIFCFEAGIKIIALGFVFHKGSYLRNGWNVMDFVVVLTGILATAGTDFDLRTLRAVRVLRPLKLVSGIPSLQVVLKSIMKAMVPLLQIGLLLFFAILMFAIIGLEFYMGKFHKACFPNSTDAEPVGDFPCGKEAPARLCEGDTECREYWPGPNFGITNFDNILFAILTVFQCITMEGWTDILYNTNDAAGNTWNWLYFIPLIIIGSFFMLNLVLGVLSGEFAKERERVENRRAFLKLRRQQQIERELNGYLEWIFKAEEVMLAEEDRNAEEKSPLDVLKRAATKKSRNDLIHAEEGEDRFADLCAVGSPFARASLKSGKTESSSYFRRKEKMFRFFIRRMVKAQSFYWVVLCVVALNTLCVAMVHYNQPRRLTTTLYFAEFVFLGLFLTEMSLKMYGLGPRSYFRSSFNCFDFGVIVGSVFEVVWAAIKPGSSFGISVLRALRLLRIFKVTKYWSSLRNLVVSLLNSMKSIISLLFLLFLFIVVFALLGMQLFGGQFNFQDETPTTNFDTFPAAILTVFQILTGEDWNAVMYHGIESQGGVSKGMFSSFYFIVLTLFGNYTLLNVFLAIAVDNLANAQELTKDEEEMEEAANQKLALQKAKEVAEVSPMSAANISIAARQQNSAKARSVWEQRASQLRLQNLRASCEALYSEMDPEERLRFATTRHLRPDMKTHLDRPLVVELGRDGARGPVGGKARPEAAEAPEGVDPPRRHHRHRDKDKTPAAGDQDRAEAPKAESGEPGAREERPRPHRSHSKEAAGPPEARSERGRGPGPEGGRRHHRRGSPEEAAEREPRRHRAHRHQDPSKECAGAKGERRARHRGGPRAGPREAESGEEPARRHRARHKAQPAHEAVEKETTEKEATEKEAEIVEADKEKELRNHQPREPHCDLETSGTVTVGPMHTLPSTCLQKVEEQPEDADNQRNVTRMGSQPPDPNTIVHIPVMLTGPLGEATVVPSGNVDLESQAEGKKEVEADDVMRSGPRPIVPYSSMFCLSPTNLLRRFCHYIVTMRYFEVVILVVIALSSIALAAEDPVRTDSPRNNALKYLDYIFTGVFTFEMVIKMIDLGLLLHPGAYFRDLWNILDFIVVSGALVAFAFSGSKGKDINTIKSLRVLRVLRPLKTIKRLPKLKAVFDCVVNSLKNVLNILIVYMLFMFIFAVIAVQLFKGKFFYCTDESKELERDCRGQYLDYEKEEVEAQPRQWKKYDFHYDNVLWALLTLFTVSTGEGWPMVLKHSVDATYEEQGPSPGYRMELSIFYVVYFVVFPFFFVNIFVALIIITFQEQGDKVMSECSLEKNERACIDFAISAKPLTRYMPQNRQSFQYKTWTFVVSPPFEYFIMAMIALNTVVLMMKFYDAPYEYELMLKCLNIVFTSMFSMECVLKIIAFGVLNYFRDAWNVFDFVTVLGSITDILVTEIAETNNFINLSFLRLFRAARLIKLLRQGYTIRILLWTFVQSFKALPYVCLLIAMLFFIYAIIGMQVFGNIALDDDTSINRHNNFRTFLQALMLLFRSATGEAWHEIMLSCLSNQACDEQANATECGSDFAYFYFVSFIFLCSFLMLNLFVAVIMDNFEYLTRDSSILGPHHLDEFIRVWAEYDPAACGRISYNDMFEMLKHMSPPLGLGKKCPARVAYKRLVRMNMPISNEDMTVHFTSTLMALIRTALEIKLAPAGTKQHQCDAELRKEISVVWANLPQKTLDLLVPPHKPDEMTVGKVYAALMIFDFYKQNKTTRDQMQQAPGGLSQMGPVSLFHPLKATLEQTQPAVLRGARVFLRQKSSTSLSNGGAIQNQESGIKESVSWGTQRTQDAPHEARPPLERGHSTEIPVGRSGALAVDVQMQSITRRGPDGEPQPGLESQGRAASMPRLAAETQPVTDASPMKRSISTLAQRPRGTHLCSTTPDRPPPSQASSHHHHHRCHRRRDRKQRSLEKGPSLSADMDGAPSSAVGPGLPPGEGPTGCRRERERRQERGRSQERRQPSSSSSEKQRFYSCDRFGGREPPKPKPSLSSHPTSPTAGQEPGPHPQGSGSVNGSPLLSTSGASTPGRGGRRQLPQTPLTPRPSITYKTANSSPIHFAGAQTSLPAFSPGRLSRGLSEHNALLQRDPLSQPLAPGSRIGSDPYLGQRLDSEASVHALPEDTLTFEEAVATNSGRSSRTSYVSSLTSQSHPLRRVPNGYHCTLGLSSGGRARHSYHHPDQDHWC

Structure (SMILES) | IC50 [µM]
Nc1ccc(C(=O)N2CCN(S(=O)(=O)c3ccc(C(F)(F)F)cc3)CC2)cn1 [Example 66, 5-[(4-{[4-(trifluoromethyl)phenyl]sulfon-yl}-1-piperazinyl)carbonyl]-2-pyridinamine] | ≥ 31.6
Cc1ccc(C(=O)N2CCN(S(=O)(=O)c3ccc(C#N)cc3C)C[C@@H]2C)c(C)n1 [Example 67, 4-({(3S)-4-[(2,6-dimethyl-3-pyridinyl)carbonyl]-3-methyl-1-piperazinyl}sulfonyl)-3-methylbenzonitrile] | ≥ 31.6
Cc1cc(C)c(C(=O)N2CCN(S(=O)(=O)c3ccc(C#N)cc3C)C[C@@H]2C)cn1 [Example 68, 4-({(3S)-4-[(4,6-dimethyl-3-pyridinyl)carbonyl]-3-methyl-1-piperazinyl}sulfonyl)-3-methylbenzonitrile] | ≥ 31.6
O=C(c1ccc(N2CCCC2)nc1)N1CCN(S(=O)(=O)c2ccc(C(F)(F)F)cc2)CC1 [Example 69, 1-{[6-(1-pyrrolidinyl)-3-pyridinyl]carbonyl}-4-{[4-(trifluoromethyl)phenyl]sulfon-yl}piperazine] | ≥ 31.6
O=C(c1ccc(NC2CCOCC2)nc1)N1CCN(S(=O)(=O)c2ccc(C(F)(F)F)cc2)CC1 [Example 70, N-(tetrahydro-2H-pyran-4-yl)-5-[(4-{[4-(trifluoromethyl)phenyl]sulfon-yl}-1-piperazinyl)carbonyl]-2-pyridinamine] | ≥ 31.6
Cc1cc(C#N)ccc1S(=O)(=O)N1CCN(C(=O)c2ccc(N(C)C)nc2)[C@@H](C)C1 [Example 71, 4-[((3S)-4-{[6-(dimethylamino)-3-pyridinyl]carbonyl}-3-methyl-1-piperazinyl)sulfonyl]-3-methylbenzonitrile] | ≥ 31.6
Cc1ccc(C(=O)N2CCN(S(=O)(=O)c3ccc(C#N)cc3)C[C@@H]2C)cn1 [Example 72, 4-({(3S)-3-methyl-4-[(6-methyl-3-pyridinyl)carbonyl]-1-piperazinyl}sulfonyl)benzo-nitrile] | ≥ 31.6
Cc1ccc(C(=O)N2CCN(S(=O)(=O)c3ccc(OC(F)F)cc3)CC2)cn1 [Example 73, 1-({4-[(difluoromethyl)oxy]phenyl}sulfonyl)-4-[(6-methyl-3-pyridinyl)carbonyl]piperazine] | ≥ 31.6
Cc1ccc(C(=O)N2CCN(S(=O)(=O)c3ccc(C(F)(F)F)cc3C)CC2)cn1 [Example 74, 1-[(6-methyl-3-pyridinyl)carbonyl]-4-{[2-methyl-4-(trifluoromethyl)phenyl]sulfonyl}piperazine] | ≥ 31.6
